Calls of active or inactive are those of the source. The rule behind the calls is not given here.
Legend:
[1] = test system: Rattus norvegicus; assay: Neuroleptic activity in ip dosed Long-Evans rat assessed as inhibition of pole-climb avoidance; format: functional
[2] = test system: Rattus norvegicus; assay: Neuroleptic activity in ip dosed Long-Evans rat assessed as increase in escape failure; format: functional
[3] = test system: Rattus norvegicus; assay: Non-specific toxicity in ip dosed Wistar rat assessed as inhibition of amphetamine-induced circling administered 60 mins prior to amphetamine challenge; format: organism-based; conditions: in vivo, 1 h
[4] = test system: Rattus norvegicus; assay: Neuroleptic activity in Sprague-Dawley rat assessed as inhibition of Sidman avoidance at 20 mg/kg, ip relative to control; format: functional; conditions: route intraperitoneal
[5] = test system: Rattus norvegicus; assay: Non-specific toxicity in ip dosed Wistar rat assessed as inhibition of d-amphetamine sulfate-induced stereotypy administered 1 hr prior to d-amphetamine sulfate challenge measured after 55 to 65 mins; format: organism-based; conditions: in vivo
[6] = test system: Canis familiaris; assay: Non-specific toxicity in po dosed Beagle dog assessed as inhibition of apomorphine hydrochloride-induced emesis; format: organism-based, Canis lupus familiaris; conditions: in vivo
[7] = test system: Rattus norvegicus; assay: Neuroleptic activity in ip dosed Sprague-Dawley rat assessed as inhibition of Sidman avoidance measured for 4 to 6 hrs; format: functional
[8] = test system: Rattus norvegicus; assay: Neuroleptic activity in Long-Evans rat assessed as inhibition of pole-climb avoidance at 5 mg/kg, ip relative to control; format: functional; conditions: route intraperitoneal
[9] = test system: Canis familiaris; assay: Non-specific toxicity in Beagle dog assessed as inhibition of apomorphine hydrochloride-induced emesis at 0.5 mg/kg, po; format: organism-based; design: dose 0.5 mg/kg, route oral; conditions: Canis lupus familiaris
[10] = test system: Canis familiaris; assay: Ratio of compound ED50 to haloperidol ED50 for non-specific toxicity in po dosed Beagle dog assessed as inhibition of apomorphine hydrochloride-induced emesis; format: organism-based, Canis lupus familiaris; conditions: in vivo
[11] = test system: Rattus norvegicus; assay: Neuroleptic activity in po dosed Sprague-Dawley rat assessed as inhibition of Sidman avoidance measured for 4 to 6 hrs; format: functional
[12] = test system: Squirrel monkey; assay: Neuroleptic activity in squirrel monkey assessed as inhibition of Sidman avoidance at 20 mg/kg, po measured for 4 hrs in presence of anticholinergic agent benztropine; format: functional, organism-based; design: dose 20 mg/kg; conditions: Saimiri sciureus
[13] = test system: Rattus norvegicus; assay: Neuroleptic activity in po dosed Long-Evans rat assessed as inhibition of pole-climb avoidance; format: functional
[14] = test system: Rattus norvegicus; assay: Non-specific toxicity in Wistar rat assessed as inhibition of apomorphine hydrochloride-induced stereotypy at 25 mg/kg, sc administered 1 hr prior to apomorphine hydrochloride challenge measured after 5 to 20 mins; format: organism-based; design: dose 25 mg/kg, route subcutaneous; conditions: in vivo
[15] = test system: Rattus norvegicus; assay: Neuroleptic activity in po dosed Long-Evans rat assessed as increase in escape failure; format: functional
[16] = test system: Squirrel monkey; assay: Neuroleptic activity in squirrel monkey assessed as inhibition of Sidman avoidance at 20 mg/kg, po measured for 4 hrs; format: functional; conditions: Saimiri sciureus, in Primates
[17] = test system: Squirrel monkey; assay: Neuroleptic activity in squirrel monkey assessed as inhibition of Sidman avoidance at 5 mg/kg, po measured for 4 hrs; format: functional; conditions: Saimiri sciureus, in Primates
[18] = test system: Squirrel monkey; assay: Neuroleptic activity in squirrel monkey assessed as inhibition of Sidman avoidance at 10 mg/kg, po measured for 4 hrs; format: functional; conditions: Saimiri sciureus, in Primates
[19] = test system: Squirrel monkey; assay: Neuroleptic activity in squirrel monkey assessed as inhibition of Sidman avoidance at 2.5 mg/kg, po measured for 4 hrs; format: functional; conditions: Saimiri sciureus, in Primates
[20] = test system: Rattus norvegicus; assay: Non-specific toxicity in sc dosed Wistar rat assessed as inhibition of apomorphine hydrochloride-induced stereotypy administered 1 hr prior to apomorphine hydrochloride challenge measured after 5 to 20 mins; format: organism-based; conditions: in vivo
[21] = test system: Squirrel monkey; assay: Neuroleptic activity in squirrel monkey assessed as inhibition of Sidman avoidance at 0.75 mg/kg, po measured for 4 hrs; format: functional; conditions: Saimiri sciureus, in Primates
[22] = test system: Squirrel monkey; assay: Neuroleptic activity in squirrel monkey assessed as inhibition of Sidman avoidance at 1 mg/kg, po measured for 4 hrs; format: functional; conditions: Saimiri sciureus, in Primates
[23] = organism: Rattus norvegicus; assay: animal or person; conditions: Sprague-Dawley, po, read-out: INH
Description: Neuroleptic activity in Sprague-Dawley rat assessed as inhibition of Sidman avoidance at 1.25 mg/kg, po relative to control

[24] = test system: Rattus norvegicus; assay: Increase in amphetamine-induced circling in Wistar rat at 5 mg/kg, ip administered 60 mins prior to amphetamine challenge; format: functional; conditions: route intraperitoneal

Question: How did the ED50 [1] turn out when `CCCC(C)C1(CC)C(=O)N=C([O-])NC1=O.[Na+]` (configuration not stated) [PENTOBARBITAL SODIUM] was run?
Answer: Its ED50 is 23.7 mg/kg.

Question: And the ED50 [2]?
Answer: Its ED50 is 24.1 mg/kg.

Question: How did the ED50 [3] turn out when `CSc1ccc2c(c1)N(CCC1CCCCN1C)c1ccccc1S2` (configuration not stated) [THIORIDAZINE] was run?
Answer: Its ED50 is 13.3 mg/kg.

Question: And the ED50 [1]?
Answer: Its ED50 is 13.8 mg/kg.

Question: And the ED50 [2]?
Answer: Its ED50 is > 60 mg/kg.

Question: And the inhibition in vivo at 20 mg/kg [4]?
Answer: Its inhibition in vivo at 20 mg/kg is 15%.

Question: And the ED50 [5]?
Answer: The ED50 was 15.8 mg/kg.

Question: What does the source list for `O=C(CCCN1CCC2(CC1)OC(c1ccccc1)c1ccc(Cl)cc12)c1ccc(F)cc1` (configuration not stated)?
Answer: ED50 [6]: 0.05 mg/kg; ED50 [3]: 3.5 mg/kg; ED50 [7]: 2.3 mg/kg; inhibition in vivo at 5 mg/kg [8]: 47%

Question: Which results are given for `O=C(CCCN1CCC2(CC1)OC(c1ccc(F)cc1)c1ccc(F)cc12)c1ccc(F)cc1` (configuration not stated)?
Answer: ED50 [3]: 9.7 mg/kg; ED50 [1]: 18.6 mg/kg; ED50 [2]: > 40 mg/kg; inhibition at 0.5 mg/kg [9]: 50%; Ratio ED50 [10]: 10; ED50 [11]: 2.2 mg/kg

Question: For `O=C(CCCN1CCC2(CC1)OC(c1ccccc1)c1ccccc12)c1ccc(F)cc1` (configuration not stated), which ED50 [6] is on record?
Answer: Its ED50 is 0.15 mg/kg.

Question: And the ED50 [3]?
Answer: Its ED50 is 2.6 mg/kg.

Question: What about the ED50 [1] of the same molecule?
Answer: Its ED50 is 8.6 mg/kg.

Question: What about the ED50 [7] of the same molecule?
Answer: The ED50 was 6.2 mg/kg.

Question: What about the ED50 [2] of the same molecule?
Answer: Its ED50 is > 40 mg/kg.

Question: And the ED50 [11]?
Answer: Its ED50 is 4.8 mg/kg.

Question: `O=C(CCCN1CCC2(CC1)OC(c1ccc(F)cc1)c1ccccc12)c1ccc(F)cc1` (configuration not stated) was tested. Which ED50 [6] did it give?
Answer: The ED50 was > 5 mg/kg.

Question: What about the inhibition [12] of the same molecule?
Answer: The inhibition was “inactive”.

Question: And the ED50 [3]?
Answer: Its ED50 is 11.9 mg/kg.

Question: And the ED50 [13]?
Answer: Its ED50 is 4.3 mg/kg.

Question: And the Activity [14]?
Answer: The Activity was “Non-toxic”.

Question: What about the ED50 [15] of the same molecule?
Answer: Its ED50 is 16.2 mg/kg.

Question: What about the ED50 [5] of the same molecule?
Answer: Its ED50 is 11.8 mg/kg.

Question: And the “Ratio ED50” value [10]?
Answer: Its value is 10.

Question: What about the inhibition in vivo at 20 mg/kg [16] of the same molecule?
Answer: The inhibition in vivo at 20 mg/kg was 90%.

Question: And the ED50 [11]?
Answer: The ED50 was 3.7 mg/kg.

Question: And the inhibition in vivo at 5 mg/kg [17]?
Answer: Its inhibition in vivo at 5 mg/kg is 21%.

Question: And the inhibition in vivo at 10 mg/kg [18]?
Answer: The inhibition in vivo at 10 mg/kg was 17%.

Question: With `COc1ccc2c(c1)C(c1ccccc1)OC21CCN(CCCC(=O)c2ccc(F)cc2)CC1` (configuration not stated) as the molecule, how does the ED50 [6] read?
Answer: The ED50 was > 1 mg/kg.

Question: And the ED50 [3]?
Answer: The ED50 was 9.9 mg/kg.

Question: What about the ED50 [1] of the same molecule?
Answer: The ED50 was 9.8 mg/kg.

Question: What about the ED50 [7] of the same molecule?
Answer: The ED50 was 9.5 mg/kg.

Question: What about the ED50 [2] of the same molecule?
Answer: The ED50 was > 40 mg/kg.

Question: And the Activity [14]?
Answer: The Activity was “Non-toxic”.

Question: And the ED50 [5]?
Answer: Its ED50 is 6.97 mg/kg.

Question: What about the “Ratio ED50” value [10] of the same molecule?
Answer: The value was 10.

Question: And the inhibition in vivo at 2.5 mg/kg [19]?
Answer: Its inhibition in vivo at 2.5 mg/kg is 29%.

Question: `COc1ccc(C2OC3(CCN(CCCC(=O)c4ccc(F)cc4)CC3)c3ccccc32)cc1` (configuration not stated) was tested. Which ED50 [6] did it give?
Answer: The ED50 was 0.16 mg/kg.

Question: What about the ED50 [3] of the same molecule?
Answer: The ED50 was 10.2 mg/kg.

Question: What about the ED50 [1] of the same molecule?
Answer: Its ED50 is 17.2 mg/kg.

Question: And the ED50 [2]?
Answer: Its ED50 is > 40 mg/kg.

Question: What about the ED50 [11] of the same molecule?
Answer: Its ED50 is 3 mg/kg.

Question: With `CN1C(=O)CN=C(c2ccccc2)c2cc(Cl)ccc21` [DIAZEPAM] as the molecule, how does the ED50 [1] read?
Answer: Its ED50 is 13.4 mg/kg.

Question: And the ED50 [2]?
Answer: Its ED50 is 24.5 mg/kg.

Question: With `CN(C)CCCN1c2ccccc2Sc2ccc(Cl)cc21` [CHLORPROMAZINE] as the molecule, how does the ED50 [6] read?
Answer: The ED50 was 12.8 mg/kg.

Question: And the ED50 [3]?
Answer: Its ED50 is 2.2 mg/kg.

Question: What about the ED50 [1] of the same molecule?
Answer: Its ED50 is 5.2 mg/kg.

Question: And the ED50 [7]?
Answer: Its ED50 is 2.3 mg/kg.

Question: What about the ED50 [2] of the same molecule?
Answer: Its ED50 is 9 mg/kg.

Question: And the ED50 [5]?
Answer: The ED50 was 1.7 mg/kg.

Question: And the ED50 [20]?
Answer: The ED50 was 5.4 mg/kg.

Question: And the ED50 [11]?
Answer: The ED50 was 7.5 mg/kg.

Question: What about the inhibition in vivo at 5 mg/kg [17] of the same molecule?
Answer: Its inhibition in vivo at 5 mg/kg is 54%.

Question: And the inhibition in vivo at 2.5 mg/kg [19]?
Answer: The inhibition in vivo at 2.5 mg/kg was 11%.

Question: `O=C(CCCN1CCC2(CC1)OC(c1ccccc1)c1ccc(F)cc12)c1ccc(F)cc1` (configuration not stated) was tested. Which ED50 [6] did it give?
Answer: Its ED50 is 0.047 mg/kg.

Question: And the ED50 [3]?
Answer: Its ED50 is 4.6 mg/kg.

Question: And the ED50 [1]?
Answer: The ED50 was 0.95 mg/kg.

Question: And the ED50 [7]?
Answer: The ED50 was 2.7 mg/kg.

Question: What about the ED50 [2] of the same molecule?
Answer: Its ED50 is 31.1 mg/kg.

Question: How did the ED50 [6] turn out when `O=C(CCCN1CCC(O)(c2ccc(Cl)cc2)CC1)c1ccc(F)cc1` [HALOPERIDOL] was run?
Answer: The ED50 was 0.06 mg/kg.

Question: What about the ED50 [3] of the same molecule?
Answer: Its ED50 is 0.1 mg/kg.

Question: And the ED50 [1]?
Answer: The ED50 was 0.53 mg/kg.

Question: What about the inhibition in vivo at 0.75 mg/kg [21] of the same molecule?
Answer: The inhibition in vivo at 0.75 mg/kg was 2%.

Question: What about the ED50 [7] of the same molecule?
Answer: The ED50 was 0.35 mg/kg.

Question: And the ED50 [2]?
Answer: Its ED50 is 7.3 mg/kg.

Question: And the inhibition in vivo at 1 mg/kg [22]?
Answer: The inhibition in vivo at 1 mg/kg was 30%.

Question: What about the ED50 [5] of the same molecule?
Answer: The ED50 was 0.21 mg/kg.

Question: And the ED50 [20]?
Answer: The ED50 was 0.2 mg/kg.

Question: And the inhibition in vivo at 1.25 mg/kg [23]?
Answer: Its inhibition in vivo at 1.25 mg/kg is 50%.

Question: With `O=C(CCCN1CCC2(CC1)OC(c1ccc(Cl)cc1)c1ccccc12)c1ccc(F)cc1` (configuration not stated) as the molecule, how does the ED50 [6] read?
Answer: Its ED50 is > 10 mg/kg.

Question: What about the ED50 [1] of the same molecule?
Answer: The ED50 was > 20 mg/kg.

Question: What about the ED50 [7] of the same molecule?
Answer: Its ED50 is > 10 mg/kg.

Question: And the Activity [24]?
Answer: Its Activity is 47%.

Question: Which ED50 [11] does the source give for `COc1ccc2c(c1)C1(CCN(CCCC(=O)c3ccc(F)cc3)CC1)OC2c1ccccc1` (configuration not stated) here?
Answer: Its ED50 is > 10 mg/kg.

Question: And the inhibition in vivo at 10 mg/kg [18]?
Answer: The inhibition in vivo at 10 mg/kg was 77%.

— ChEMBL document CHEMBL3244346, “Synthesis of spiro[isobenzofuran-1(3H),4'-piperidines] as potential central nervous system agents. 4. Central nervous system depressants” (J Med Chem, 1978)
